Assay results: EP0762893B1, “TREATMENT OF PLASMA” (SUOMEN PUNAINEN RISTI VERIPALVELU, priority 1994, dated 1995)

What was measured:
F VIII = experiment: Inactivation of F VIII activity during MB photochemical treatment of 2 ml pooled plasma samples (chromogenic substrate assay); assay type: biochemical; settings: 1 µmol/l of MB, TL-M 115/33 fluorescent tubes for 1 h
fibrinogen = experiment: Inactivation of clottable fibrinogen during MB photochemical treatment of 2 ml pooled plasma samples (thromboplastin time assay); assay type: biochemical; settings: 1 µmol/l of MB, TL-M 115/33 fluorescent tubes for 1 h
[1] = Disappearance of ascorbate and urate from plasma during MB photochemical treatment (HPLC); settings: compared with ascorbate
Method: To study the effect of added ascorbate, we used a plasma pool with a low ascorbate level (35 µmol/l). […] Ascorbate was added to the plasma at different concentrations before MB that was used at a final concentration of 1 µmol/l. Plasma samples of 2 ml were illuminated in 2.5 ml cryotubes (Falcon) with TL-M 115/33 RS fluorescent tubes (Philips) for 1 h. A transparent cooling plate with fluid circulation was placed between the plasma samples and the fluorescent tubes to keep the temperature of the plasma below 22 °C. The irradiation power at the level of the plasma tubes was 1.9 mW/cm^2 at 595-695 nm (40 000 lux). After illumination, the samples were divided into portions of 0.5 ml and frozen.
To study the fate of ascorbate during MB treatment, we followed the concentration of ascorbate at different stages of the treatment and compared it to urate, another antioxidant considered important in plasma. Plasma was illuminated with the fluorescent tubes in 2 ml portions as in Example 1, and the illumination was interrupted at different periods. Urate was measured with the same HPLC method as ascorbate.

CN(C)c1ccc2nc3ccc(=[N+](C)C)cc-3sc2c1 [MB, methylene blue]
extent of inactivation of factor VIII (F VIII): ~40%
extent of inactivation of fibrinogen (fibrinogen): about 50%
absorbing form of MB after dilution: quantitatively restored

O=c1[nH]c(=O)c2[nH]c(=O)[nH]c2[nH]1 [Urate, urate]
disappearance of urate from plasma [1]: clearly more slowly than ascorbate
